# Test results reported in patent EP0636146B1, “TACHYKININ ANTAGONIST TRICYCLIC COMPOUNDS, PREPARATION OF SAME AND PHARMACEUTICAL COMPOSITIONS CONTAINING SUCH COMPOUNDS” (A. MENARINI INDUSTRIE FARMACEUTICHE RIUNITE S.R.L., priority 1992, dated 1997).
# Columns and labels:
# [1] = tested on: neuroquinine A receptor (receptor NK-2); assay: inhibition of NKA-induced contraction of isolated rabbit pulmonary artery; type: cell-based; details: NKA 3 nM
# Protocol: The capacity of the products described in the present invention to interact with the neuroquinine A receptor as agonists or antagonists was assessed using a preparation characterized by the fact that the biological response produced by tachyquinines and correlated peptides was exclusively determined by the neuroquinine A receptor (receptor NK-2). The said preparation consisted of isolated rabbit pulmonary artery affected by a dose-dependent contraction brought about by tachyquinines (Rovero et al., Neuropeptides, 13, 263-270, 1989). The determination of the peptide activity in the test preparation was based on the use of an NKA concentration (3 nM) causing a response equal to 45% of max. response. The peptides considered herein were added to the preparation in growing concentrations. Their activity was assessed as inhibition of response to NKA.
# [2] = tested on: P substance receptor (receptor NK-1); assay: inhibition of SP methyl ester-induced contraction of isolated guinea pig ileum; type: cell-based; set-up: dose or concentration left out as unconfirmed; details: SP methyl ester 10 nm
# Protocol: The capacity of the products described herein to interact with the P substance receptor (receptor NK-1) was assessed through an in vitro test, where the biological response produced by tachyquinines and correlated peptides was exclusively determined by the P substance receptor. The test preparation consisted of isolated guinea pig ileum affected by a dose-dependent contraction brought about by tachyquinines (Lee et al., Schmied. Arch. Pharmacol., 318, 281-287, 1982). The determination of the activity of the products as per the present invention in the test preparation was based on the use of an SP methyl ester concentration (10 nm) causing a response equal to 45% of max. response (S. Dion et al., Life Sci., 41, 2269-2278, 1987). The products considered herein were added to the preparation in growing concentrations. Their activity was assessed as inhibition of response to SP with satisfactory results.
substance,measurement,setting,value
cyclo(MDWFL) [compound 1],inhibition of response to neuroquinine A,[1],100%
same,inhibition of response to SP methyl ester,[2],100%
